Non-standard residues stand in square brackets, D forms with d. Nle = CCCC[C@H](N)C(=O)O
Tests used:
human melanocytes = experiment: DNA damage as measured by 8-oxo-dG immunofluorescence; assay type: cell-based
Source text: DNA damage of cultured melanocytes following UV irradiation leads to consistent levels of photoproducts such as 8-oxo-dG. It is well established in the art (dermal carcinogenesis) that 8-oxodG is a major form of UV-induced oxidative DNA damage, which results from the generation of reactive oxygen species (ROS). The induction of 8-oxodG by 8-oxo-dGTP can be inhibited by pyrophosphohydrolases (8-[…]) that convert it to 8-oxo-dGMP. […] Immunofluorescence was detected using a microscope with FITC filters. Data were expressed as the mean fluorescence intensity±S.E., determined using the densitometry values from 6-8 randomly obtained images, using the computer assisted program Alpha Inotech Imaging System and the AlphaEase FC StandAlone Software.

melanocyte strain 1513c [1] = experiment: Tyrosinase activity as a measure of stability / residual effect, strain 1513c; assay type: cell-based, human
Protocol: To determine the residual effect of CUV9900, as compared to NDP-MSH and α-MSH, on tyrosinase activity, melanocytes were treated with either CUV9900 or NDP-MSH at the concentrations previously described for a total of 3 days. Tyrosinase activity was measured at the end of the 3 days of treatment, and 2 and 4 days after maintenance of the melanocytes in the complete absence of any treatment.
(§1) With continued reference to FIGS. 7, 8 and 9, to determine the stability of CUV9900 versus that of NDP-MSH and α-MSH, melanocytes were treated with 1 nM of each peptide, namely with CUV9900, NDP-MSH and α-MSH, for a total of 6 days, or with 1 nM peptides that were incubated for 5 hours at 37° C. prior to addition to the cultures, every other day, for a total of 6 days. Tyrosinase activity was measured at the end of treatment. In the experiments, cell number represents the mean percent of control of 3 determinations/group±SE, and tyrosinase activity data represent the mean percent of control of 6 determinations±S.E. It should be noted that for the sake of reproducibility the experiment of strain 1513c of FIG. 9 was performed once more 6 months later than the experiment of FIG. 7.
Melanocytes were treated for 3 days with the designated concentrations of CUV9900, NDP-MSH, or MSH, then maintained in absence of peptides for 4 days. Tyrosinase activity was determined 3 days after treatment.
Comparison of stability of CUV9900, NDP-MSH and MSH was compared in 1513c, as shown in FIG. 7; the strain was treated for 6 days with 1 nM CUV9900, NDP-MSH or MSH with fresh medium and peptide replenished every 2 days. Melanocytes were treated according to the same experiment protocol but each peptide was incubated for 5-7 hours at 37 degrees Celsius. […] The assessment of tyrosinase was statistically different from control, as determined by ANOVA (p=<0.05).
Tyrosinase activity as a measure of stability is shown in Tables 4 to 6 below, wherein Table 4 is based on data derived from FIG. 7, Table 5 is based on data derived from FIG. 9, and Table 6 is based on data derived from FIG. 8: […]

melanocyte strain 1513c [2] = experiment: Cell proliferation as a measure of stability, strain 1513c; assay type: cell-based, human
Protocol: as §1
Peptides were incubated at 37 degrees Celsius for 5 hours and then split into groups. Cell proliferation was a measure of stability, whereby the experiments on strain 1513c were divided in period 1 and 2 under standard conditions.
Cell proliferation as a measure of stability is shown in Tables 1 to 3 below, wherein Table 1 is based on data derived from FIG. 7, Table 2 is based on data derived from FIG. 9, and Table 3 is based on data derived from FIG. 8: […]

melanocytic strain 1505b = experiment: UV-induced generation of hydrogen peroxide (luminol), strain 1505b; assay type: cell-based, human; conditions: 1 nM
Source text: With reference to FIGS. 10 and 11, melanocytes were irradiated with a bank of FS 20 lamps, with 75% emission in the UVB, and 25% emission in the UVA spectra, with peak emission at 313 nm wavelength. Any emission of UVC rays from the UV source (FS 20 lamps) was blocked by Kodacel filter. Prior to irradiation, the culture medium was replaced by PBS, which was removed after UV exposure, and fresh medium added.
Melanocytes were irradiated with 105 mJ/cm^2 UV, and treated immediately while in PBS with 0, 1 nM α-MSH or 1 nM CUV9900. Generation of hydrogen peroxide, representative of reactive oxygen species (ROS), was determined by measuring the luminescence of luminol at 0, 30, and 45 min after UV exposure. Triplicate dishes were included in each group, and duplicate samples from each dish were used for measurement of hydrogen peroxide at each time point. Each data point represents the mean of 6 determinations/group±S.E.
In the melanocytic strain 1505b of FIG. 10 and melanocytic strain 103c of FIG. 11, hydrogen peroxide generation was assessed at 0, 30 and 45 minutes after UV irradiation.

melanocyte strain 103c = experiment: UV-induced apoptosis by Annexin V staining, strain 103c; assay type: cell-based, human; conditions: 1 nM, 4 days prior and 1 day following 105 mJ/cm^2 UV
Protocol: With reference to FIGS. 12 and 13, melanocytes were maintained for the duration of the experiment in medium lacking bovine pituitary extract (BPE) to determine the survival effect of α-MSH or its analogs in the absence of the anti-apoptotic effect of TPA. Melanocytes were treated with 0, 1 nM α-MSH, 1 μM Forskolin, or 1 nM NDP-MSH or CUV9900 for 4 days prior to, and 24 h after exposure to a dose of 105 mJ/cm^2 UV, then stained for Annexin Va staining. The data are represented as percent increase above control, with triplicate dishes included in each group.
Comparison of the effect of CUV9900, NDP-MSH and MSH on the UV-induced apoptosis were made in the melanocyte strains 103c and melanocyte strain 1513c of FIGS. 12 and 13, respectively. Both strains were treated with 1 nM CUV9900, NDP and MSH, respectively for 4 days prior and 1 day following irradiation. Floating as well as attached cells were harvested and stained for Annexin V, and analyzed by flow cytometry.

With “Ac-Nle-Glu His-D-Phe-Arg-Trp-NH2 (Ac-[Nle]EH[dF]RW-NH2; SMILES CCCC[C@H](NC(C)=O)C(=O)N[C@@H](CCC(=O)O)C(=O)N[C@@H](Cc1c[nH]cn1)C(=O)N[C@H](Cc1ccccc1)C(=O)N[C@@H](CCCNC(=N)N)C(=O)N[C@@H](Cc1c[nH]c2ccccc12)C(N)=O) [CUV9900, hexapeptide alpha-MSH analogue]” the “less 8-oxo-dG cellular DNA damage in comparison with alpha-MSH” value (human melanocytes) was 33%, the “tyrosinase activity, comparison in words” value (melanocyte strain 1513c [1]; first experiment in strain 1513c (Table 4)) was “increased tyrosinase activity in comparison to Control and MSH, but marginally less than NDP-MSH” and the “Tyrosinase activity, Mean” value (melanocyte strain 1513c [1]; strain 1513c [1], 1 nM, mean of columns 1-3) was 215.7 % of control. The “effect of incubating the peptide on its stimulation of tyrosinase activity” value (melanocyte strain 1513c [1]; strain 1513c, 1 nM peptide incubated 5-7 hours at 37 degrees Celsius) was “no effect on its ability to stimulate tyrosinase activity”, the “Tyrosinase activity, Mean [1 + 2]” value (melanocyte strain 1513c [1]; strain 1513c, mean over experiments [1] and [2]) was 284.2 % of control and the “more stable than MSH (cell proliferation)” value (melanocyte strain 1513c [2]; strain 1513c) was 3.4%. The “more stable than NDP-MSH (cell proliferation)” value (melanocyte strain 1513c [2]; strain 1513c) was 0.65%, the “Cell proliferation (cell number), Mean” value (melanocyte strain 1513c [2]; strain 1513c [2], mean) was 119.9% of control and the “hydrogen peroxide generation, comparison” value (melanocytic strain 1505b; 45 minutes after irradiation) was “lower hydrogen peroxide generation in comparison with both NDP-MSH and MSH”. The “UV-induced hydrogen peroxide generation” value (melanocytic strain 1505b; strain 1505b, 105 mJ/cm^2 UV, 0, 30 and 45 minutes after irradiation) was “significant reduction of UV-induced hydrogen peroxide generation” and the “anti-apoptotic effect (Annexin V), comparison” value (melanocyte strain 103c) was “equal anti-apoptotic effect than NDP-MSH”.

From patent US20130331331A1, “HEXAPEPTIDE WITH IMPROVED ACTIVITY IN THE REPAIR OF CELLULAR DNA OF DERMAL CELLS” (priority 2011, published 2013)
